Source: US10045983B2, “Heteroaryl pyridone and aza-pyrodine compounds” (Genentech, Inc., priority 2011, dated 2018)
Where two headings read alike, the source gives them in different places.

Assay: CD69 Whole Blood Assay (CD69 Hu Blood FACS)
Format: cell-based, human
Settings: Lymphocyte, human whole blood, anti-IgM activated B lymphocytes, FACS, IC70
Summary of the method: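 Compounds tested for blocking B-cell CD69 induction by flow cytometry in human whole blood, with activation via anti-human IgM goat F(ab′)2 crosslinking of surface IgM.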

[1] = Table 2 (unit inferred), read-out: CD69 Hu Blood FACS (IC70)
[2] = Table 1, read-out: CD69 Hu Blood FACS IC70

## Cn1cc(-c2ccnc(N3CCn4c(cc5c4CC(C)(C)C5)C3=O)c2CO)cc(Nc2cc(-c3ccccc3)on2)c1=O [Example 299, 3-[3-(hydroxymethyl)-4-[1-methyl-6-oxo-5-[(5-phenylisoxazol-3-yl)amino]-3-pyridyl]-2-pyridyl]-7,7-dimethyl-1,2,6,8-tetrahydrocyclopenta[3,4]pyrrolo[3,5-b]pyrazin-4-one]
[1]
  IC70: 2100 nM

## CN1CCn2nc(Nc3cc(-c4ccnc(-n5ccn6c7c(cc6c5=O)CCCC7)c4CO)cn(C)c3=O)cc2C1 [Example 195, 2-[3-(hydroxymethyl)-4-[1-methyl-5-[(5-methyl-6,7-dihydro-4H-pyrazolo[1,5-a]pyrazin-2-yl)amino]-6-oxo-3-pyridyl]-2-pyridyl]-6,7,8,9-tetrahydropyrazino[1,2-a]indol-1-one]
[1]
  IC70: 101 nM

## Cn1cc(-c2cncc(N3CCc4c(sc5c4CCCC5)C3=O)c2CO)cc(Nc2ccc(N3CCN(C4COC4)CC3)cn2)c1=O [Example 105, 4-Hydroxymethyl-3-[1-methyl-5-({5-[4-(oxetan-3-yl)piperazin-1-yl]pyridine-2-yl}amino)-6-oxo-1,6-dihydropyridin-3-yl]-5-{6-oxo-8-thia-5-azatricyclo-[7.4.0.0^2,7]trideca-1(9),2(7)-dien-5-yl}pyridine]
[2]
  IC70: 65.4 nM

## C[C@@H]1COC[C@H](C)N1C(=O)c1ccc(Nc2cc(-c3ccnc(N4CCn5c(cc6c5CC(C)(C)C6)C4=O)c3CO)nn(C)c2=O)nc1 [Example 321, 3-[4-[5-[[5-[(3 S,5R)-3,5-dimethylmorpholine-4-carbonyl]-2-pyridyl]amino]-1-methyl-6-oxo-pyridazin-3-yl]-3-(hydroxymethyl)-2-pyridyl]-7,7-dimethyl-1,2,6,8-tetrahydrocyclopenta[3,4]pyrrolo[3,5-b]pyrazin-4-one]
[1]
  IC70: 112 nM

## CN1CCC(c2ccc(Nc3cc(-c4ccnc(N5CCn6c(cc7c6CCCC7)C5=O)c4CO)cn(C)c3=O)nc2)CC1 [Example 232, 2-[3-(hydroxymethyl)-4-[1-methyl-5-[[5-(1-methyl-4-piperidyl)-2-pyridyl]amino]-6-oxo-3-pyridyl]-2-pyridyl]-3,4,6,7,8,9-hexahydropyrazino[1,2-a]indol-1-one]
[1]
  IC70: 51.8 nM

## CC[C@H]1CN(C2COC2)CCN1c1ccc(Nc2cc(-c3ccnc(N4CCn5c(cc6c5CC(C)(C)C6)C4=O)c3CO)cn(C)c2=O)nc1 [Example 164, 2-{5-[5-((S)-2-Ethyl-4-oxetan-3-yl-piperazin-1-yl)-pyridin-2-ylamino]-3′-hydroxymethyl-1-methyl-6-oxo-1,6-dihydro-[3,4′]bipyridinyl-2′-yl}-7,7-dimethyl-3,4,7,8-tetrahydro-2H,6H-cyclopenta[4,5]pyrrolo[1,2-a]pyrazin-1-one]
[2]
  IC70: 29 nM

## Cn1cc(-c2ccnc(N3CCn4c(cc5c4CC(C)(C)C5)C3=O)c2CO)nc(Nc2ccn3ccnc3c2)c1=O [Example 185, 2-{3-Hydroxymethyl-4-[6-(imidazo[1,2-a]pyridin-7-ylamino)-4-methyl-5-oxo-4,5-dihydro-pyrazin-2-yl]-pyridin-2-yl}-7,7-dimethyl-3,4,7,8-tetrahydro-2H,6H-cyclopenta[4,5]pyrrolo[1,2-a]pyrazin-1-one]
[2]
  IC70: 1300 nM

## C[C@H]1CN(C2COC2)CCN1c1ccc(Nc2cc(-c3ccnc(-n4ccn5c6c(cc5c4=O)CCCC6)c3CO)cn(C)c2=O)nc1 [Example 176, (S)-2-(3-(hydroxymethyl)-4-(1-methyl-5-(5-(2-methyl-4-(oxetan-3-yl)piperazin-1-yl)pyridin-2-ylamino)-6-oxo-1,6-dihydropyridin-3-yl)pyridin-2-yl)-6,7,8,9-tetrahydropyrazino[1,2-a]indol-1(2H)-one]
[2]
  IC70: 37.5 nM

## CN1CCn2nc(Nc3cc(-c4ccnc(N5CCn6c(cc7c6[C@@H]6CC[C@H]7C6)C5=O)c4CO)cn(C)c3=O)cc2C1 (stereo in doubt) [Example 170, 2-(3-(hydroxymethyl)-4-(1-methyl-5-(5-methyl-4,5,6,7-tetrahydropyrazolo[1,5-a]pyrazin-2-ylamino)-6-oxo-1,6-dihydropyridin-3-yl)pyridin-2-yl)-3,4,6,7,8,9-hexahydro-6,9-methanopyrazino[1,2-a]indol-1(2H)-one]
[2]
  IC70: 335 nM

## Cc1nnc(Nc2cc(-c3ccnc(N4CCn5c(cc6c5CC(C)(C)C6)C4=O)c3CO)cn(C)c2=O)s1 [Example 267, 3-[3-(hydroxymethyl)-4-[1-methyl-5-[(5-methyl-1,3,4-thiadiazol-2-yl)amino]-6-oxo-3-pyridyl]-2-pyridyl]-7,7-dimethyl-1,2,6,8-tetrahydrocyclopenta[3,4]pyrrolo[3,5-b]pyrazin-4-one]
[1]
  IC70: 225 nM

## Cn1cc(-c2ccnc(N3CCn4c(cc5c4CC(C)(C)C5)C3=O)c2CO)cc(Nc2ccnc(C(C)(C)O)n2)c1=O [Example 264, 3-[3-(hydroxymethyl)-4-[5-[[2-(1-hydroxy-1-methyl-ethyl)pyrimidin-4-yl]amino]-1-methyl-6-oxo-3-pyridyl]-2-pyridyl]-7,7-dimethyl-1,2,6,8-tetrahydrocyclopenta[3,4]pyrrolo[3,5-b]pyrazin-4-one]
[1]
  IC70: 653 nM

## Cn1cc(-c2ccnc(N3CCn4c(cc5c4CCCC5)C3=O)c2CO)cc(Nc2ccc(N3CCN(CCO)CC3)cn2)c1=O [Example 123, 2-(4-(5-(5-(4-(2-Hydroxyethyl)piperazin-1-yl)pyridin-2-ylamino)-1-methyl-6-oxo-1,6-dihydropyridin-3-yl)-3-(hydroxymethyl)pyridin-2-yl)-3,4,6,7,8,9-hexahydro-pyrazino[1,2-a]indol-1(2H)-one]
[2]
  IC70: 33.1 nM

## Cn1cc(-c2ccnc(N3CCn4c(cc5c4CC(C)(C)C5)C3=O)c2CO)cc(Nc2cc[nH]n2)c1=O [Example 289, 3-[3-(hydroxymethyl)-4-[1-methyl-6-oxo-5-(1H-pyrazol-3-ylamino)-3-pyridyl]-2-pyridyl]-7,7-dimethyl-1,2,6,8-tetrahydrocyclopenta[3,4]pyrrolo[3,5-b]pyrazin-4-one]
[1]
  IC70: 214 nM

## C[C@H]1CN(C2COC2)CCN1c1ccc(Nc2cc(-c3ccnc(N4CCn5c6c(c(F)c5C4=O)CCCC6)c3CO)cn(C)c2=O)nc1 [Example 136, (S)-10-Fluoro-2-(3-(hydroxymethyl)-4-(1-methyl-5-(5-(2-methyl-4-(oxetan-3-yl)piperazin-1-yl)pyridin-2-ylamino)-6-oxo-1,6-dihydropyridin-3-yl)pyridin-2-yl)-3,4,6,7,8,9-hexahydropyrazino[1,2-a]indol-1(2H)-one]
[2]
  IC70: 30 nM

## Cn1cc(-c2ccnc(N3CCn4c(cc5c4CC(C)(C)C5)C3=O)c2CO)cc(Nc2ccc(C#N)cn2)c1=O [Example 276, 6-[[5-[2-(7,7-dimethyl-4-oxo-1,2,6,8-tetrahydrocyclopenta[3,4]pyrrolo[3,5-b]pyrazin-3-yl)-3-(hydroxymethyl)-4-pyridyl]-1-methyl-2-oxo-3-pyridyl]amino]pyridine-3-carbonitrile]
[1]
  IC70: 358 nM

## CCc1cc(Nc2cc(-c3ccnc(N4CCn5c(cc6c5CC(C)(C)C6)C4=O)c3CO)cn(C)c2=O)no1 [Example 295, 3-[4-[5-[(5-ethylisoxazol-3-yl)amino]-1-methyl-6-oxo-3-pyridyl]-3-(hydroxymethyl)-2-pyridyl]-7,7-dimethyl-1,2,6,8-tetrahydrocyclopenta[3,4]pyrrolo[3,5-b]pyrazin-4-one]
[1]
  IC70: 134 nM

## C[C@@H]1COCCN1C(=O)c1ccc(Nc2cc(-c3ccnc(N4CCn5c(cc6c5CC(C)(C)C6)C4=O)c3CO)cn(C)c2=O)nc1 [Example 249, 3-[3-(hydroxymethyl)-4-[1-methyl-5-[[5-[(3R)-3-methylmorpholine-4-carbonyl]-2-pyridyl]amino]-6-oxo-3-pyridyl]-2-pyridyl]-7,7-dimethyl-1,2,6,8-tetrahydrocyclopenta[3,4]pyrrolo[3,5-b]pyrazin-4-one]
[1]
  IC70: 17.7 nM

## CC(=O)N1CCn2nc(Nc3cc(-c4ccnc(N5CCn6c(cc7c6CC(C)(C)C7)C5=O)c4CO)cn(C)c3=O)cc2C1 [Example 212, 3-[4-[5-[(5-acetyl-6,7-dihydro-4H-pyrazolo[1,5-a]pyrazin-2-yl)amino]-1-methyl-6-oxo-3-pyridyl]-3-(hydroxymethyl)-2-pyridyl]-7,7-dimethyl-1,2,6,8-tetrahydrocyclopenta[3,4]pyrrolo[3,5-b]pyrazin-4-one]
[1]
  IC70: 15.2 nM

## Cn1cc(-c2ccnc(N3CCn4c(cc5c4CCCC5)C3=O)c2CO)cc(Nc2ccncn2)c1=O [Example 142, 2-[3′-Hydroxymethyl-1-methyl-6-oxo-5-(pyrimidin-4-ylamino)-1,6-dihydro-[3,4′]bipyridinyl-2′-yl]-3,4,6,7,8,9-hexahydro-2H-pyrazino[1,2-a]indol-1-one]
[2]
  IC70: 2100 nM

## C[C@@H]1CN(c2ccc(Nc3cc(-c4ccnc(N5CCn6c(cc7c6CC(C)(C)C7)C5=O)c4CO)cn(C)c3=O)nc2)[C@@H](C)CN1C1COC1 [Example 158, 2-{5-[5-((2S,5R)-2,5-Dimethyl-4-oxetan-3-yl-piperazin-1-yl)-pyridin-2-ylamino]-3′-hydroxymethyl-1-methyl-6-oxo-1,6-dihydro-[3,4′]bipyridinyl-2′-yl}-7,7-dimethyl-3,4,7,8-tetrahydro-2H,6H-cyclopenta[4,5]pyrrolo[1,2-a]pyrazin-1-one]
[2]
  IC70: 20 nM

## Cn1nc(-c2ccnc(N3CCc4c(sc5c4CC(C)(C)C5)C3=O)c2CO)cc(Nc2ccc(C(=O)N3CCOCC3)cn2)c1=O [Example 259, 3-[3-(hydroxymethyl)-4-[1-methyl-5-[[5-(morpholine-4-carbonyl)-2-pyridyl]amino]-6-oxo-pyridazin-3-yl]-2-pyridyl]-7,7-dimethyl-1,2,6,8-tetrahydrocyclopenta[3,4]thieno[1,3-c]pyridin-4-one]
[1]
  IC70: 301 nM

## Cn1cc(-c2ccnc(N3CCn4c(cc5c4CCCC5)C3=O)c2CO)cc(Nc2cc3n(n2)CCOC3)c1=O [Example 129, 2-(4-(5-(6,7-Dihydro-4H-pyrazolo[5,1-c][1,4]oxazin-2-ylamino)-1-methyl-6-oxo-1,6-dihydropyridin-3-yl)-3-(hydroxymethyl)pyridin-2-yl)-3,4,6,7,8,9-hexahydropyrazino[1,2-a]indol-1(2H)-one]
[2]
  IC70: 91.7 nM
